In patent publication US20260284078A1, “IMMUNOS[…] AND METHODS THEREOF” (priority 2023, published 2026):

How the values were obtained:
[1] = Example 5 peripheral drug exposures in blood and plasma; format: in vivo, cynomolgus macaques; settings: oral once per day (Dex 0.5 mg/kg, Tac 1 mg/kg, Pred 3 mg/kg); day 21, 4 hours post-dosing
Excerpt: FIG. 9. Exemplary peripheral drug exposures in blood and plasma. […] The X axis of the graph denotes immunosuppression agent (dexamethasone, tacrolimus, or prednisolone); the Y axis of the graph depicts ng/ml of the immunosuppression agent as detected in blood for dexamethasone and prednisolone or in plasma for tacrolimus. Each circle represents data collected from one animal.

cynomolgus macaques [2] = assay: Example 5 liver enzymes and total bilirubin in blood (Table 2); settings: rAAV 5×10^13 vg/kg IV plus regimen
Excerpt: Blood samples were collected from animals on days-7, 4, 8, 15, and 22 (wherein 0=day of rAAV administration) and subsequently analyzed for levels of certain liver enzymes and total bilirubin. […] (D) Level of total bilirubin (TBIL) was quantified. The X axis depicts day of study (wherein 0=day of rAAV administration); the Y axis depicts milligrams (mg) per deciliter (dL) of total bilirubin. Each graphed line corresponds to data collected from one animal. Legend at right identifies treatment group.
Reduction in liver toxicity upon treatment with rAAV by tested immunosuppression regimens was investigated through measurement of levels of liver enzymes and analysis of liver lesions at necropsy.

cynomolgus macaques [3] = assay: Example 5 histopathological lesions in examined animals (Table 1); format: in vivo; settings: rAAV 5×10^13 vg/kg IV + regimen, day 22 necropsy
Excerpt: FIGS. 10A-10C. […] Columns represent average value for each treatment group. […] Treatment group is denoted at left. […] Magnification is indicated at top. […] Treatment groups of animals are indicated at top.

**Q.** For C[C@@H]1C[C@H]2[C@@H]3CCC4=CC(=O)C=C[C@]4(C)[C@@]3(F)[C@@H](O)C[C@]2(C)[C@@]1(O)C(=O)CO [Dex, dexamethasone], which peripheral drug exposure [1] is on record?
**A.** achieved targeted ranges of peripheral drug exposure

**Q.** With C[C@]12C=CC(=O)C=C1CC[C@@H]1[C@@H]2[C@@H](O)C[C@@]2(C)[C@H]1CC[C@]2(O)C(=O)CO [Pred, prednisolone] as the compound, how does the total bilirubin levels (cynomolgus macaques [2]) read?
**A.** notable increases

**Q.** And the “Dorsal root ganglia, cervical: Infiltrate, mononuclear cell (animals affected, total)” value (cynomolgus macaques [3]; 3 examined per group)?
**A.** (0)

**Q.** And the “Dorsal root ganglia, cervical: Infiltrate, mononuclear cell, Minimal (animals)” value (cynomolgus macaques [3]; 3 examined per group)?
**A.** 0

**Q.** And the “Dorsal root ganglia, lumbar: Degeneration/necrosis, neuron (animals affected, total)” value (cynomolgus macaques [3]; 3 examined per group)?
**A.** (3)

**Q.** And the “Dorsal root ganglia, lumbar: Degeneration/necrosis, neuron, Minimal (animals)” value (cynomolgus macaques [3]; 3 examined per group)?
**A.** 3

**Q.** What about the “Dorsal root ganglia, lumbar: Infiltrate, mononuclear cell (animals affected, total)” value (cynomolgus macaques [3]; 3 examined per group) of the same compound?
**A.** (3)

**Q.** And the “Dorsal root ganglia, lumbar: Infiltrate, mononuclear cell, Minimal (animals)” value (cynomolgus macaques [3]; 3 examined per group)?
**A.** 3

**Q.** And the “Dorsal root ganglia, sacral: Degeneration/necrosis, neuron (animals affected, total)” value (cynomolgus macaques [3]; 3 examined per group)?
**A.** (1)

**Q.** And the “Dorsal root ganglia, sacral: Degeneration/necrosis, neuron, Minimal (animals)” value (cynomolgus macaques [3]; 3 examined per group)?
**A.** 1

**Q.** And the “Dorsal root ganglia, sacral: Infiltrate, mononuclear cell (animals affected, total)” value (cynomolgus macaques [3]; 3 examined per group)?
**A.** (1)

**Q.** And the “Dorsal root ganglia, sacral: Infiltrate, mononuclear cell, Mild (animals)” value (cynomolgus macaques [3]; 3 examined per group)?
**A.** 1

**Q.** What about the “Dorsal root ganglia, sacral: Infiltrate, mononuclear cell, Minimal (animals)” value (cynomolgus macaques [3]; 3 examined per group) of the same compound?
**A.** 0

**Q.** What about the “Dorsal root ganglia, thoracic: Degeneration/necrosis, neuron (animals affected, total)” value (cynomolgus macaques [3]; 3 examined per group) of the same compound?
**A.** (1)

**Q.** What about the “Dorsal root ganglia, thoracic: Degeneration/necrosis, neuron, Minimal (animals)” value (cynomolgus macaques [3]; 3 examined per group) of the same compound?
**A.** 1

**Q.** And the “Dorsal root ganglia, thoracic: Infiltrate, mononuclear cell (animals affected, total)” value (cynomolgus macaques [3]; 3 examined per group)?
**A.** (2)

**Q.** What about the “Dorsal root ganglia, thoracic: Infiltrate, mononuclear cell, Minimal (animals)” value (cynomolgus macaques [3]; 3 examined per group) of the same compound?
**A.** 2

**Q.** What about the “Heart: Degeneration, myocardium (animals affected, total)” value (cynomolgus macaques [3]; 3 examined per group) of the same compound?
**A.** (1)

**Q.** And the “Heart: Degeneration, myocardium, Minimal (animals)” value (cynomolgus macaques [3]; 3 examined per group)?
**A.** 1

**Q.** What about the “Heart: Infiltrate, mononuclear cell, adipose (animals affected, total)” value (cynomolgus macaques [3]; 3 examined per group) of the same compound?
**A.** (3)

**Q.** And the “Heart: Infiltrate, mononuclear cell, adipose, Minimal (animals)” value (cynomolgus macaques [3]; 3 examined per group)?
**A.** 3

**Q.** And the “Heart: Infiltrate, mononuclear cell, myocardium (animals affected, total)” value (cynomolgus macaques [3]; 3 examined per group)?
**A.** (2)

**Q.** What about the “Heart: Infiltrate, mononuclear cell, myocardium, Mild (animals)” value (cynomolgus macaques [3]; 3 examined per group) of the same compound?
**A.** 1

**Q.** And the “Heart: Infiltrate, mononuclear cell, myocardium, Minimal (animals)” value (cynomolgus macaques [3]; 3 examined per group)?
**A.** 1

**Q.** And the “Sciatic nerve: Degeneration, nerve fiber (animals affected, total)” value (cynomolgus macaques [3]; 3 examined per group)?
**A.** (1)

**Q.** And the “Sciatic nerve: Degeneration, nerve fiber, Minimal (animals)” value (cynomolgus macaques [3]; 3 examined per group)?
**A.** 1

**Q.** And the “Trigeminal ganglion: Degeneration/necrosis, neuron (animals affected, total)” value (cynomolgus macaques [3]; 3 examined per group)?
**A.** (2)

**Q.** What about the “Trigeminal ganglion: Degeneration/necrosis, neuron, Minimal (animals)” value (cynomolgus macaques [3]; 3 examined per group) of the same compound?
**A.** 2

**Q.** What about the “Trigeminal ganglion: Infiltrate, mononuclear cell (animals affected, total)” value (cynomolgus macaques [3]; 3 examined per group) of the same compound?
**A.** (2)

**Q.** And the “Trigeminal ganglion: Infiltrate, mononuclear cell, Minimal (animals)” value (cynomolgus macaques [3]; 3 examined per group)?
**A.** 2

**Q.** What about the “Sympathetic ganglia, thoracic: Infiltrate, mononuclear cell (animals affected, total)” value (cynomolgus macaques [3]; examined: Dex/Tac 1, Pred 3) of the same compound?
**A.** (2)

**Q.** And the “Sympathetic ganglia, thoracic: Infiltrate, mononuclear cell, Minimal (animals)” value (cynomolgus macaques [3]; examined: Dex/Tac 1, Pred 3)?
**A.** 2

**Q.** What about the “Sympathetic ganglia, cervical: Infiltrate, mononuclear cell (animals affected, total)” value (cynomolgus macaques [3]; examined: Dex/Tac 3, Pred 2) of the same compound?
**A.** (1)

**Q.** What about the “Sympathetic ganglia, cervical: Infiltrate, mononuclear cell, Minimal (animals)” value (cynomolgus macaques [3]; examined: Dex/Tac 3, Pred 2) of the same compound?
**A.** 1

**Q.** And the peripheral drug exposure [1]?
**A.** achieved targeted ranges of peripheral drug exposure

**Q.** Which peripheral drug exposure [1] does the source give for C=CC[C@@H]1/C=C(\C)C[C@H](C)C[C@H](OC)[C@H]2O[C@@](O)(C(=O)C(=O)N3CCCC[C@H]3C(=O)O[C@H](/C(C)=C/[C@@H]3CC[C@@H](O)[C@H](OC)C3)[C@H](C)[C@@H](O)CC1=O)[C@H](C)C[C@@H]2OC [Tac, tacrolimus] here?
**A.** achieved targeted ranges of peripheral drug exposure
